# Reference: ChEMBL document CHEMBL3352811, “Novel pyrazoline derivatives as bi-inhibitor of COX-2 and B-Raf in treating cervical carcinoma” (Bioorg Med Chem, 2014)
# Key:
# Homo sapiens = organism: Homo sapiens; assay: Selectivity index, ratio of IC50 for COX1 (unknown origin) to IC50 for COX2 (unknown origin)
# [1] = Inhibition of mouse B-Raf V600E mutant assessed as as reduction in human N-terminal His-tagged MEK1 phosphorylation pre-incubated with compound for 1 hr
# [2] = Antiproliferative activity against human WM266.4 cells after 24 hrs by MTT assay; format: functional; settings: WM 266-4, 24 h
# [3] = target: Prostaglandin G/H synthase 1 (Homo sapiens, UniProt P23219); assay: Inhibition of COX1 (unknown origin) by solid phase ELISA method
# Prostaglandin G/H synthase 1, sequence (P23219 whole entry): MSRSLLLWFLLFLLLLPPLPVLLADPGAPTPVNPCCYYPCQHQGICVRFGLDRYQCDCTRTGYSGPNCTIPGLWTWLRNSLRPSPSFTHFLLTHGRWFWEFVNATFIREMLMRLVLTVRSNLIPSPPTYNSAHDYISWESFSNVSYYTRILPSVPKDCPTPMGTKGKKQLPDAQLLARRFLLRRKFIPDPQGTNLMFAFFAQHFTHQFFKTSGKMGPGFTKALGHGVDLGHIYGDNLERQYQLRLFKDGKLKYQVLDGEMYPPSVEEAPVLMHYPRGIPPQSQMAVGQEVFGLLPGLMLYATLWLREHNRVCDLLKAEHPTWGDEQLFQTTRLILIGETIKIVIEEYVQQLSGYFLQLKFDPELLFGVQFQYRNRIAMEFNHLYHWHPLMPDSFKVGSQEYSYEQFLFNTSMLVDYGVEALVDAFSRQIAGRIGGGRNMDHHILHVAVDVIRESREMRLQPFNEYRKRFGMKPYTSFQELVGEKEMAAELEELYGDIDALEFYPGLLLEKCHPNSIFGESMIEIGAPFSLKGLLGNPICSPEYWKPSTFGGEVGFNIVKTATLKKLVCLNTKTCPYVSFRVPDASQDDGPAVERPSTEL
# HeLa = assay: Antiproliferative activity against human HeLa cells after 24 hrs by MTT assay; format: functional
# [4] = target: T1, Prostaglandin G/H synthase 2 (Homo sapiens, UniProt P35354); assay: Inhibition of COX2 (unknown origin) by solid phase ELISA method
# T1 sequence (P35354 whole entry): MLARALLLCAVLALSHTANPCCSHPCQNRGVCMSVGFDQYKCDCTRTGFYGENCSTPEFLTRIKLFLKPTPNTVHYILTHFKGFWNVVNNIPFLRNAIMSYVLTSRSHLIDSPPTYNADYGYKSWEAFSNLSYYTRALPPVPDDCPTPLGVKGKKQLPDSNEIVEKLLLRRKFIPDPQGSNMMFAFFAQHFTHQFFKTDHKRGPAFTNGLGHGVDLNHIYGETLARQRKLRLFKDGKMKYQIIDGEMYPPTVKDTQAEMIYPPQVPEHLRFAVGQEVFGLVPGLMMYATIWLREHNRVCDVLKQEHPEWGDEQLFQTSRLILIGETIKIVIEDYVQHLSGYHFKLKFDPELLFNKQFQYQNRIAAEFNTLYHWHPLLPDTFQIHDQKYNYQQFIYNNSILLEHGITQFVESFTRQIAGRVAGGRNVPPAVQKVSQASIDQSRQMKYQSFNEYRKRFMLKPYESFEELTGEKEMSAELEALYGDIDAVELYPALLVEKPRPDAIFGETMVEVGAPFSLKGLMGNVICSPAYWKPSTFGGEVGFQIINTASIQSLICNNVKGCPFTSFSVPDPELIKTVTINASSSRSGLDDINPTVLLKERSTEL
Compound,Ratio IC50 (Homo sapiens),IC50 [1] [µM],GI50 [2] [µM],IC50 [3] [µM],GI50 (HeLa) [µM],IC50 [4] [µM]
NS(=O)(=O)c1ccc(N2N=C(C(F)(F)F)CC2c2ccc3c(c2)OCO3)cc1 (stereo not given),> 500,3.84,2.47,19,–,–
NS(=O)(=O)c1ccc(N2N=C(C(F)(F)F)CC2c2cccc3c2OCO3)cc1 (stereo not given),197,1.77,1.32,10,26.2,–
Cc1ccc(S(=O)(=O)N2N=C(C(F)(F)F)CC2c2cccc3c2OCCO3)cc1 (stereo not given),0.01,1.74,1.34,15.4,> 500,> 500
CCCS(=O)(=O)Nc1ccc(F)c(C(=O)c2c[nH]c3ncc(-c4ccc(Cl)cc4)cc23)c1F [VEMURAFENIB],–,0.06,–,–,–,–
Cc1ccc(S(=O)(=O)N2N=C(C(F)(F)F)CC2c2ccc3c(c2)OCO3)cc1 (stereo not given),7,2.26,1.63,3.72,28.7,–
CS(=O)(=O)c1ccc(N2N=C(C(F)(F)F)CC2c2ccc3c(c2)OCCO3)cc1 (stereo not given),270,0.89,1.12,64.9,23.5,–
NS(=O)(=O)c1ccc(N2N=C(C(F)(F)F)CC2c2ccc3ccccc3c2)cc1 (stereo not given),1.3,1.15,1.09,19,49.8,–
O=S(=O)(c1ccccc1)N1N=C(C(F)(F)F)CC1c1ccc2c(c1)OCO2 (stereo not given),2.5,2.41,1.63,14.1,34.6,–
Cc1ccc(S(=O)(=O)N2N=C(C(F)(F)F)CC2c2cccc3c2OCO3)cc1 (stereo not given),–,1.11,1.08,10.4,> 500,–
O=S(=O)(c1ccccc1)N1N=C(C(F)(F)F)CC1c1cccc2ccccc12 (stereo not given),0.26,1.24,1.18,17.6,> 500,–
NS(=O)(=O)c1ccc(N2N=C(C(F)(F)F)CC2c2cccc3ccccc23)cc1 (stereo not given),–,8.23,8.91,17,29.5,–
NS(=O)(=O)c1ccc(N2N=C(C(F)(F)F)CC2c2cccc3c2OCCO3)cc1 (stereo not given),> 500,0.15,0.82,34.5,26,–
O=S(=O)(c1ccccc1)N1N=C(C(F)(F)F)CC1c1cccc2c1OCO2 (stereo not given),0.14,9.46,13.6,8.75,> 500,–
CS(=O)(=O)c1ccc(N2N=C(C(F)(F)F)CC2c2cccc3c2OCO3)cc1 (stereo not given),269,9.86,16.8,10.8,38.6,–
NS(=O)(=O)c1ccc(N2N=C(C(F)(F)F)CC2c2ccc3c(c2)OCCO3)cc1 (stereo not given),> 500,17,132,41.5,19.9,–
CS(=O)(=O)c1ccc(N2N=C(C(F)(F)F)CC2c2ccc3ccccc3c2)cc1 (stereo not given),2.2,0.67,0.97,38.7,63.6,–
CS(=O)(=O)c1ccc(N2N=C(C(F)(F)F)CC2c2cccc3c2OCCO3)cc1 (stereo not given),–,0.12,0.76,40.6,26,–
CS(=O)(=O)c1ccc(N2N=C(C(F)(F)F)CC2c2cccc3ccccc23)cc1 (stereo not given),–,8.53,10.6,15.2,33.3,–
Cc1ccc(S(=O)(=O)N2N=C(C(F)(F)F)CC2c2ccc3c(c2)OCCO3)cc1 (stereo not given),3.5,0.25,0.83,4.63,24.8,–
O=S(=O)(c1ccccc1)N1N=C(C(F)(F)F)CC1c1ccc2ccccc2c1 (stereo not given),0.04,> 100,> 500,7.23,> 500,174
CS(=O)(=O)c1ccc(N2N=C(C(F)(F)F)CC2c2ccc3c(c2)OCO3)cc1 (stereo not given),411,0.49,0.89,57.5,27.6,–
O=S(=O)(c1ccccc1)N1N=C(C(F)(F)F)CC1c1cccc2c1OCCO2 (stereo not given),3.7,5.24,3.87,100,127,–
O=S(=O)(c1ccccc1)N1N=C(C(F)(F)F)CC1c1ccc2c(c1)OCCO2 (stereo not given),54,> 100,> 500,106,58.9,–
O=c1[nH]cc(F)c(=O)[nH]1 [FLUOROURACIL],–,–,28.8,–,30.2,–
Cc1ccc(S(=O)(=O)N2N=C(C(F)(F)F)CC2c2ccc3ccccc3c2)cc1 (stereo not given),10.7,0.85,1.01,> 500,> 500,–
Cc1ccc(S(=O)(=O)N2N=C(C(F)(F)F)CC2c2cccc3ccccc23)cc1 (stereo not given),1.7,1.01,1.06,153,> 500,–
